# Source: patent publication US20020155172A1, “Methods and compounds for decreasing cell toxicity or death” (priority 2000, published 2002)
# Experiments:
# [1] = tested on: neuroblastoma (SHSY) cells transfected with Q79-GFP; test: Expanded polyglutamine aggregation and cell death in neuroblastoma (SHSY) cells; assay type: cell-based; details: Congo red 1.5 to 100 nM
# Method: Cells, including neuroblastoma cells, HeLa cells, primary neuronal cells, and primary embryonic neuronal cells were transiently transfected with the plasmid […]-GFP, encoding 79 glutamines followed by the jellyfish green fluorescent protein (Sanchez et al., supra). Expression of […]-GFP was observed 48 or 72 hours after transfection by visual inspection of GFP-positive cells using an inverted fluorescence microscope. In a cell expressing […]-GFP polypeptides, polyglutamine aggregates are formed and the cell dies by apoptosis (Sanchez, supra). Cell viability was determined by morphological criteria characteristic of apoptosis, including cell blebbing, shrinking. Total cell lysates and tissue homogenates were obtained using Buffer A: 1% triton in PBS, containing 10 μg/ml DNAse and protease inhibitors; leupeptin 20 μg/ml, aprotinin 20 u/ml, and PMSF 100 mM. […] These effects were determined by visual inspection of GFP-positive cells under an inverted fluorescence microscope. […] Cells expressing […]-GFP were incubated in cell culture media containing Congo red and evaluated for the effect of Congo red on polyglutamine aggregation and cell death. […] The cells were then scored the presence of visible oligomers by fluorescence microscopy. Cells in which oligomers were not detected at this level of resolution were scored as cells lacking polyglutamine aggregates. […]
# [2] = tested on: FADDdn, caspase-8dn, and HD exon-1 (Q25)-GFP; test: Recruitment of polyglutamine interacting proteins; assay type: cell-based; details: HeLa co-transfected with Q-79
# Text: FIG. 7A is a graph of the effect of Congo red or ZVAD on the recruitment of caspase-8, a death domain, or proteins containing short polyglutamine repeats by expanded polyglutamine oligomerization in cells transfected with a Q79-GFP expression construct and a caspase-8 (GFP-casp 8DN), death domain (GFP-FADD DN), or short polyglutamine (HD-1 (Q25)-GFP) protein recruitment.
# We co-transfected HeLa cells with Q-79 and one of the following expression constructs, GFP-FADDdn (GFP fused to the death domain of FADD adapter protein, that generates a dominant negative FADD polypeptide (missing the first 80 amino acids of the full length protein)), GFP-caspase-8dn (GFP-tagged C360S mutant of caspase-8, generating a dominant negative caspase-8 polypeptide; Sanchez et al., supra), or GFP-exon-1 (Q25) (a GFP fusion construct containing the first exon of human huntingtin protein, encoding a 25 polyglutamine stretch; Kazantsev et al., Proc. Natl. Acad. Sci. USA 96:[…], 1999), in the presence of ZVAD or of Congo red (FIGS. 7A and B).
# [3] = tested on: GST-Q81 beads; test: Chemical absorption assay, Q81; assay type: binding; details: 25 μM of each (FIG. 6B)
# Method: FIG. 6B is a graph of the percent of binding of various compounds to amyloid-like Q81 aggregates measured using a chemical absorption assay. The anti-amyloid compounds minocycline, Chrysamine G, Rolitetracycline, iota carrageenan, dextran 500 (dextran), or Congo red (25 μM of each) were pre-absorbed with Q81 GST recombinant protein and the percentage absorbance of the compound remaining in the supernatant after absorption with GST-Q81 beads is plotted on the y-axis.
# To determine if Congo red and its derivatives directly bind to expanded polyglutamine aggregates, we designed a chemical absorption assay. This assay measures the remaining Congo red in the supernatant after incubating the supernatant with GST-tagged polyglutamine beads, and removing the GST-polyglutamine beads by centrifugation. This assay was carried out as follows. Recombinant protein GST-Q19, GST-Q62, and GST-Q81 (containing 19, 62, and 81 polyglutamines, respectively) was purified from E. coli by glutathione beads. After several washes with PBS containing protease inhibitors, the beads were allowed to settle to the bottom of the tube at 24° C. for 10 minutes. The polyglutamine-bound beads were aliquoted and diluted with two volumes of 10 μg/ml of Congo red in PBS. The beads were mixed and centrifuged at 15,000 rpm for 2 minutes and the supernatant was removed and diluted 1:100. The percentage absorbance of the compound remaining in the supernatant after absorption with the GST-polyQ beads was then detected. In addition, Congo red- or PBS-only treated polyglutamine polypeptide bead pellets were washed three times with 100 volumes of PBS and then the protein was separated by 12% polyacrylamide gels and immunoblotted as mentioned above. Some blots were used for immunostaining with anti-polyglutamine antibody (EM48). Other blots were left unstained to visualize the red color of Congo red that entered the gel along with the polyglutamine protein.
# Binding of the above-identified compounds to amyloid-like Q81 aggregates was also assessed by a chemical absorption assay. The compounds indicated in FIG. 19 (25 μM of each) were pre-absorbed with a Q81 GST recombinant protein and the percentage absorbance of the compound remaining in the supernatant after absorption with GST-Q81 beads was then detected.
# [4] = tested on: caspase-1, -8, or -11; test: Apoptosis induced by overexpression of caspases; assay type: cell-based
# Method: FIG. 5H is a graph of the effects of Congo red on cell death induced by caspase over-expression(caspases-8, -1, or -11).
# HeLa cells expressing Q79 expanded polyglutamine repeats were treated with 100 μM Congo red, or 100 μM ZVAD (a positive control) for one hour prior to the addition of the apoptosis-inducing agent, and cell death was determined 48 hours later. […] Finally we tested whether Congo red can inhibit apoptosis induced by overexpression of caspase-1, -8, or -11.
# [5] = tested on: HeLa cells co-transfected with a luciferase construct together with Q79-GFP; test: Protein synthesis by luciferase activity in Q79 expressing HeLa cells; assay type: cell-based; details: 48 hours after transfection
# [6] = tested on: caspase-8; test: Activation of caspase-8 by Western blot; assay type: cell-based; details: HeLa, HA-tagged Q79-GFP
# Method: Expanded polyglutamine repeats recruit and activate caspase-8 (Sanchez et al., supra). We tested if the treatment of cells expressing expanded polyglutamine repeats with Congo red inhibits the activation of caspase-8. HeLa cells were transfected with a hemagglutinin-tagged (HA) […]-GFP construct in the presence or absence of Congo red and the cell lysates were analyzed by Western blot analysis for the expression of caspase-8, or for expression of HA. The appearance of a 45 kilodalton active caspase-8 fragment was detected at 24 hours after transfection, which was before significant loss of cytoplasmic membrane integrity and morphological changes occurred, and near the time of ATP loss (FIG. 5E).
structure (smiles),measurement,setting,value
"Nc1c(/N=N/c2ccc(-c3ccc(/N=N/c4cc(S(=O)(=O)O)c5ccccc5c4N)cc3)cc2)cc(S(=O)(=O)O)c2ccccc12 [Congo red, diphenyldiazo-bis-alpha-napthylaminesulfonate]",cell death,[1],significantly reduced cell death
same,formation of polyglutamine aggregates,[1],inhibited the formation of polyglutamine aggregates
same,"recruitment of FADDdn, caspase-8dn, and HD exon-1 (Q25)-GFP",[2],"decreased the concurrent recruitment of FADDdn, caspase-8dn, and HD exon-1 (Q25)-GFP"
same,binding to 81-repeat polyglutamine polypeptide,[3],binds to expanded polyglutamines
same,"apoptosis induced by overexpression of caspase-1, -8, or -11",[4],had no effect on caspase induced cell death
same,loss of luciferase activity (protein synthesis),[5],prevented the loss of luciferase activity
same,appearance of active caspase-8 (45 kilodalton fragment),[6],completely inhibited the appearance of active caspase-8
